Test results from article PMC11596392, “Enhanced Antibacterial, Anti-Inflammatory, and Antibiofilm Activities of Tryptophan-Substituted Peptides Derived from Cecropin A-Melittin Hybrid Peptide BP100” (Molecules, 2024).
Read-outs that look alike come from different tables or passages of the source. Where no end group is shown, it is not given here.

Tests used:
[1] = system: preformed MDRPA (CCARM 2095) biofilms; format: cell-based, multidrug-resistant Pseudomonas aeruginosa; settings: 24 h treatment; for MBEC50: 50% eradication; for MBEC90: 90% eradication
Method: While preventing biofilm formation on surfaces is crucial, treating established biofilm infections presents a significant challenge due to the extracellular polymeric substance (EPS) matrix hindering antibiotic penetration and the high cell density within mature biofilms. To address this challenge, we evaluated the ability of BP100 and its analogs to eradicate established MDRPA biofilms over a 24 h period. The minimum biofilm eradication concentration (MBEC90) was determined using crystal violet staining as the lowest concentration that reduced biomass by more than 90%. Among these peptides, BP5, BP6, BP7, BP8, BP9, BP11, and BP13 eradicated preformed MDRPA biofilms by more than 90% at a concentration of 8 μM (Figure 3c,d and Table 3).
The minimal biofilm eradication concentration (MBEC) for peptides against the multidrug-resistant Pseudomonas aeruginosa (MDRPA) (CCARM 2095) strain was assessed using the Calgary Biofilm Device (CBD), supplied by Innovotech, Edmonton, AB, Canada. A bacterial suspension with a density of (1 × 10^6) CFU/mL in (150 µL) of Luria–Bertani (LB) media was dispensed into each well of a 96-well microtiter plate, which was equipped with a peg lid (Innovotech, product code: 19111). This plate was incubated at 37 °C for 24 h with agitation at 110 rpm, promoting biofilm formation on the pegs. Subsequently, the peg lid was washed with phosphate-buffered saline (PBS, 0.01 M) and relocated to a fresh plate containing varying peptide concentrations (200 µL per well). The biofilms were then subjected to these peptides under the same incubation conditions. After another PBS rinse, the peg lid was moved to a recovery plate filled with (200 µL) of LB media per well. To detach the biofilms from the pegs, the recovery plate underwent sonication in a water bath for 10 to 15 min. Finally, the recovery plate was incubated at 37 °C for 24 h with agitation at 110 rpm, allowing any surviving bacteria to proliferate and cause turbidity. The MBEC is defined as the lowest concentration of peptides that inhibited turbidity formation in the recovery plate in comparison to sterility controls. This experiment was conducted in triplicate, and the median value from each trial was recorded.

E. coli (KCTC 1682) [2] = format: cell-based, Escherichia coli
Method: To comprehensively evaluate the therapeutic potential of BP100 and the five selected analogs, we assessed their capacity to maintain antibacterial activity in the presence of physiological salts and serum (Table 4). Antibacterial assays were conducted in an environment supplemented with either […] fresh human serum or physiological salts. […] This enhanced stability in physiologically relevant conditions may have important implications for the potential therapeutic applications of these peptide analogs.
The minimal inhibitory concentrations (MICs) of the peptides against bacterial strains were determined using a modified broth-microdilution method in accordance with the National Committee for Clinical Laboratory Standards (NCCLS) guidelines. Overnight cultures were diluted in cation-adjusted Mueller–Hinton Broth (MHB) to achieve an inoculum density of 2 × 10^6 CFU/mL. A two-fold serial dilution of the peptide solution (100 μL) was introduced into microtiter plates, followed by the addition of 100 μL of bacterial suspension. The plates were then incubated at 37 °C for 24 h to determine the MICs. Wells containing only culture media served as negative controls, while those with added bacteria functioned as positive controls. The MIC, expressed in μM, was defined as the lowest peptide concentration that prevented visible bacterial growth. This protocol was also employed to determine MICs in the presence of physiological salts (150 mM of NaCl, 4.5 mM of KCl, 6 μM of NH4Cl, 1 mM of MgCl2, 2.5 mM of CaCl2, and 4 μM of FeCl3) and 20% human serum to assess the peptides’ efficacy under conditions more closely resembling physiological environments. All experiments were conducted in triplicate and repeated three times independently to ensure reproducibility and statistical significance of the results.

MDRPA (CCARM 2095) = format: cell-based, multidrug-resistant Pseudomonas aeruginosa; settings: for MICA: MIC of peptide alone: checkerboard, 37 °C, 24 h; for FICI: fractional inhibitory concentration index: peptide with ciprofloxacin, [A]/MICA + [B]/MICB
Source text: Multidrug-resistant pathogens pose a significant challenge to both human and animal health. The steady decline in the discovery of new antibiotics has exacerbated the difficulty in developing effective therapies for infection control. Consequently, there is an urgent need for alternative strategies that can combat pathogens without inducing drug resistance. One such strategy involves the combination of different antimicrobial agents. The effects of antimicrobial peptides (AMPs) combined with conventional antibiotics often surpass those of individual drugs. […] The primary advantage of synergistic combinations lies in their ability to lower the concentration of each antimicrobial agent required for effective antibacterial activity. This approach offers several benefits, including reduced production costs, a decreased risk of adverse side effects, diminished toxicity to mammalian cells, and a lower likelihood of drug resistance development. In light of these potential advantages, we investigated the synergistic effects of BP100 and the five selected analogs in combination with ciprofloxacin against multidrug-resistant Pseudomonas aeruginosa (MDRPA) using a checkerboard synergy assay. Ciprofloxacin, an antibiotic belonging to the fluoroquinolone class, is commonly used to treat various bacterial infections, including urinary tract infections and pneumonia. It exerts a bactericidal effect by inhibiting bacterial DNA gyrase, thereby disrupting DNA replication and transcription […]. The fractional inhibitory concentration index (FICI) results for BP100 and its selected analogs, when paired with ciprofloxacin against MDRPA, are detailed in Table 5. […] Such combinations may offer a valuable approach to enhancing the efficacy of existing antibiotics and potentially mitigating the development of antimicrobial resistance.
The synergistic effects of peptide-antibiotic combinations against methicillin-resistant Staphylococcus aureus (MRSA; CCARM 3089) and multidrug-resistant Pseudomonas aeruginosa (MDRPA; CCARM 2095) were evaluated using the fractional inhibitory concentration index (FICI) method. Antibiotics and peptides were subjected to two-fold serial dilutions, mixed in equal ratios, and combined with a bacterial suspension adjusted to approximately 10^6 CFU/mL. The resulting mixtures were distributed into microplate wells and incubated at 37 °C with orbital shaking at 200 rpm for 24 h. Bacterial growth was monitored by measuring the optical density at 600 nm (OD600). The FICI was calculated using the broth microdilution checkerboard method, defined as the sum of the ratios of the minimum inhibitory concentrations (MICs) of each agent in combination to their individual MICs, according to the following equation: FICI = (MIC of antibiotic in combination/MIC of antibiotic alone) + (MIC of peptide in combination/MIC of peptide alone). The interpretation of FICI values was as follows: FICI ≤ 0.5 indicates synergy; 0.5 < FICI ≤ 1.0 indicates an additive effect; 1.0 < FICI ≤ 4.0 indicates indifference; and FICI > 4.0 indicates antagonism.

E. coli (KCTC 1682) [3] = format: cell-based, Escherichia coli; settings: 10% Human Serum
S. aureus (KCTC 1621) = format: cell-based, Staphylococcus aureus; settings: 10% Human Serum

## KKLFKKWWKWL-NH2 [BP16]
[1]
  MBEC50: 16 µM
  MBEC90: 32 µM

## KKLFKKWWKYL-NH2 [BP9]
[1]
  MBEC50: 4 µM
  MBEC90: 8 µM

## KKLWKKILKWL-NH2 [BP8]
[1]
  MBEC50: 2 µM
  MBEC90: 8 µM
E. coli (KCTC 1682) [2]; 4 μM of FeCl3
  MIC: 4 µM
E. coli (KCTC 1682) [2]; 6 μM of NH4Cl
  MIC: 8 µM
E. coli (KCTC 1682) [2]; 1 mM of MgCl2
  MIC: 8 µM
E. coli (KCTC 1682) [2]; 2.5 mM of CaCl2
  MIC: 16 µM
E. coli (KCTC 1682) [2]; 4.5 mM of KCl
  MIC: 4 µM
E. coli (KCTC 1682) [2]; 150 mM of NaCl
  MIC: 8 µM
E. coli (KCTC 1682) [2]; Control, absence of salts
  MIC: 2 µM
MDRPA (CCARM 2095)
  MICA: MIC of peptide alone: 8 µg/mL
E. coli (KCTC 1682) [3]
  MIC: 4 µM
S. aureus (KCTC 1621)
  MIC: 4 µM

## KKLWKKIWKYL-NH2 [BP7]
[1]
  MBEC50: 4 to 8 µM
  MBEC90: 8 µM

## KKLWKKIWKYW-NH2 [BP15]
[1]
  MBEC50: 8 to 16 µM
  MBEC90: 16 µM

## KKLWKKWLKYW-NH2 [BP14]
[1]
  MBEC50: 8 to 16 µM
  MBEC90: 16 µM

## KKWFKKILKWL-NH2 [BP6]
[1]
  MBEC50: 4 µM
  MBEC90: 8 µM
E. coli (KCTC 1682) [2]; 4 μM of FeCl3
  MIC: 16 µM
E. coli (KCTC 1682) [2]; 6 μM of NH4Cl
  MIC: 16 µM
E. coli (KCTC 1682) [2]; 1 mM of MgCl2
  MIC: 8 µM
E. coli (KCTC 1682) [2]; 2.5 mM of CaCl2
  MIC: 16 µM
E. coli (KCTC 1682) [2]; 4.5 mM of KCl
  MIC: 4 µM
E. coli (KCTC 1682) [2]; 150 mM of NaCl
  MIC: 8 µM
E. coli (KCTC 1682) [2]; Control, absence of salts
  MIC: 4 µM
MDRPA (CCARM 2095)
  MICA: MIC of peptide alone: 8 µg/mL
  FICI: fractional inhibitory concentration index: 0.375
E. coli (KCTC 1682) [3]
  MIC: 4 µM
S. aureus (KCTC 1621)
  MIC: 4 µM

## KKWFKKWLKWL-NH2 [BP13]
[1]
  MBEC50: 4 µM
  MBEC90: 8 µM
E. coli (KCTC 1682) [2]; 4 μM of FeCl3
  MIC: 8 µM
E. coli (KCTC 1682) [2]; 6 μM of NH4Cl
  MIC: 8 µM
E. coli (KCTC 1682) [2]; 1 mM of MgCl2
  MIC: 8 µM
E. coli (KCTC 1682) [2]; 2.5 mM of CaCl2
  MIC: 16 µM
E. coli (KCTC 1682) [2]; 4.5 mM of KCl
  MIC: 8 µM
E. coli (KCTC 1682) [2]; 150 mM of NaCl
  MIC: 16 µM
E. coli (KCTC 1682) [2]; Control, absence of salts
  MIC: 8 µM
MDRPA (CCARM 2095)
  MICA: MIC of peptide alone: 8 µg/mL
  FICI: fractional inhibitory concentration index: 0.2656
E. coli (KCTC 1682) [3]
  MIC: 16 µM
S. aureus (KCTC 1621)
  MIC: 8 µM

## KKWWKKILKYL-NH2 [BP5]
[1]
  MBEC50: 2 µM
  MBEC90: 8 µM
E. coli (KCTC 1682) [2]; 4 μM of FeCl3
  MIC: 8 µM
E. coli (KCTC 1682) [2]; 6 μM of NH4Cl
  MIC: 4 µM
E. coli (KCTC 1682) [2]; 1 mM of MgCl2
  MIC: 4 µM
E. coli (KCTC 1682) [2]; 2.5 mM of CaCl2
  MIC: 8 µM
E. coli (KCTC 1682) [2]; 4.5 mM of KCl
  MIC: 4 µM
E. coli (KCTC 1682) [2]; 150 mM of NaCl
  MIC: 8 µM
E. coli (KCTC 1682) [2]; Control, absence of salts
  MIC: 2 µM
MDRPA (CCARM 2095)
  MICA: MIC of peptide alone: 8 µg/mL
  FICI: fractional inhibitory concentration index: 0.3125
E. coli (KCTC 1682) [3]
  MIC: 4 µM
S. aureus (KCTC 1621)
  MIC: 4 µM
